# Measured values as given in paper PMC10644720 (Frontiers in Pharmacology, 2023).
# pKd: −log10 of the molar value.
# What was measured:
# human washed platelets [1] = experiment: Platelet superoxide anion and H2O2 release (DHE, Amplex Red); assay type: cell-based; details: convulxin 5 ng/mL; luteolin 25 μM
# Procedure: A ROS probe via a fluorescent enzyme marker was added. O2 ^− and H2O2 were measured using 2 μM Amplex Red (Cat No. ST010; Beyotime Institute of Biotechnology, Shanghai, China) or 2 μM Dihydroethidium (DHE, Cat No. S0063; Beyotime Institute of Biotechnology, Shanghai, China). O2 ^− and H2O2 were analyzed using a Fluoroskan Ascent fluorometer (Thermo Fisher, Waltham, Massachusetts, United States).
# [2] = Luteolin in vivo toxicity experiments (15 days i.p.); set-up: species or system C57BL/6 mice
# Procedure: Blood was collected from the orbits every 3 days for blood tests. On the second day, after 15 days of intraperitoneal administration, pentobarbital (45 mg/kg) was injected intraperitoneally for anesthesia, and blood was sampled from the eyes. Whole blood was left for 30–60 min, and the supernatant was centrifuged at 3,000 rpm for serum liver and kidney function testing using Unicel DxC600 (Beckman Coulter, Inc. Brea, California, US). Finally, the mice were sacrificed by cervical dislocation, and the sternum was fixed in 4% paraformaldehyde. […]
# thrombin = test system: thrombin; set-up: method as in Choi et al. (2015); details: ref Choi et al. (2015); cited from earlier work
# human washed platelets [3] = experiment: Platelet-fibrinogen spreading assay; assay type: cell-based; details: 25 μg/mL fibrinogen-coated slides
# Procedure: As previously reported ([Banfi et al., 2022]), 50 μg/mL collagen and 25 μg/mL fibrinogen (Cat No. F3879-100 MG; Sigma-Aldrich, St. Louis, MO, United States) were used to coat coverslips overnight at 4°C. […] The coated slides were washed three times with PBS and blocked with 1% BSA (prepared in PBS) for 1 h at room temperature. The blocking solution was removed, and WPs were added for adhesion experiments. The WPs were allowed to adhere to the slides for 15–60 min at 37°C. The unadhered platelets were removed by PBS. The platelets were fixed with 2% paraformaldehyde solution for 15 min, broken using 1% Triton-100 for 5 min, and stained with phalloidin (1:1,000, Cat No.17466-45-4, Sigma-Aldrich) for 30 min away from light at room temperature. The platelet morphology was observed using an Olympus ix73 microscope (Olympus Corp., Shinjuku, Japan) and photographed. The number of platelet adhesions and spreading area were analyzed and calculated using ImageJ software.
# [4] = target: T1, Recombinant human GPVI protein (Homo sapiens, UniProt Q9HCN6); experiment: Surface plasmon resonance (SPR); details: Biacore S200, 25°C, 1:1 binding model
# T1 construct: purchased MedChemExpress HY-P70180
# T1 sequence (Q9HCN6 21-267 limits assumed): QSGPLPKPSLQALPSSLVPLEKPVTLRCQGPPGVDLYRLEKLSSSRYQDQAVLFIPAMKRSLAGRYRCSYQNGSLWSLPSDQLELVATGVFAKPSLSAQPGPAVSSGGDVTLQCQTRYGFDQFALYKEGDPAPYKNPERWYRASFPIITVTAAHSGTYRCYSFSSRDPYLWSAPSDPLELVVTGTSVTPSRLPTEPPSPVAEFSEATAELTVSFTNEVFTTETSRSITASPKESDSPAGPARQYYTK
# Procedure: The SPR experiment was performed on a Biacore S200 instrument (GE Healthcare; Uppsala, Sweden) at 25°C. Recombinant human GPVI protein, rhGPVI (Cat. HY-P70180; MedChemExpress), was immobilized at the level of 4,400 response units, with 10 mM sodium acetate buffer (pH 4.5) on a Series S CM5 Sensor Chip (Cat. 29104988; cytiva) at the concentration of 50 μg/mL.
# NOXs = experiment: NADPH oxidase (NOX) activity assay in platelet lysate; assay type: cell-based, human; details: convulxin (5 ng/mL)- and collagen (10 μg/mL)-induced; VAS2870 10 μM
# Procedure: MDA, SOD, GPx, and NADPH oxidase activity were measured as previously described ([Krotz et al., 2002]; [Paul et al., 2019]; [Pan et al., 2021]). After incubation and activation, the reaction was stopped by adding 10 mM EGTA. The platelets were pelleted by centrifugation at 20,000 × g for 10 min at 4°C and resuspended in Tyrode’s buffer with 0.1% phosphatase and protease inhibitors (Cat No. 04906837001, Roche Applied Science, Penzberg, Germany; Cat No. P-8340, Sigma, St. Louis, MO, United States). The platelets were disrupted by passing them 10 times through a 29-gauge needle, followed by centrifugation at 2000 × g for 10 min at 4°C to separate the supernatant and precipitate. The detection of MDA, SOD, and GPx in the supernatant was performed according to the kit’s instructions for SOD (Cat No. BC0170, Solarbio Life Science, Beijing, China), MDA (Cat No. S0131S, Beyotime Institute of Biotechnology, Shanghai, China) and GPx (Cat No. S0056, Beyotime Institute of Biotechnology, Shanghai, China). In order to determine NADPH oxidase (NOX) activity, platelet lysate (12.5 μg) was incubated with 10 µM lucigenin and 0.5 mM NADPH at 37°C in the dark. The absorbance values were detected at 450 nm using a spectrophotometer Multiskan FC (ThermoFisher Scientific Inc., Waltham, MA, United States). Protein content was determined by the Bradford method.
# Tail bleeding in mice = assay type: in vivo, C57BL/6 mice; details: luteolin 35 μM/kg or aspirin i.p., 30 min after injection; vs DMSO
# Procedure: The tail break hemorrhage experiment in mice was performed as previously reported, with slight modifications ([Liu et al., 2012]). […] Before the experiment, the mouse tails were immersed in saline for 3 min at 37°C. Then, 30 min after injection, the tails were quickly cut off using a surgical knife blade and placed in saline at 37°C. The cutting site was 5 mm from the end of the tail tip. The bleeding time of the broken tails was observed and recorded.
# [5] = luteolin 35 μM/kg i.p. daily for 15 days
# [6] = luteolin 35 μM/kg i.p. daily, 15 days, mean ± SEM
smiles,measurement,setting,value
O=c1cc(-c2ccc(O)c(O)c2)oc2cc(O)cc(O)c12 [Luteolin],platelet hydrogen peroxide release,human washed platelets [1],inhibited
same,platelet superoxide anion release,human washed platelets [1],inhibited
same,liver and kidney functions,[2]; luteolin 35 μM/kg for 15 days,normal
same,mean platelet volume vs DMSO,[2]; [5],no significant differences
same,megakaryocyte counts in bone marrow vs DMSO,[2]; [5],no significant differences
same,peripheral platelet count vs DMSO,[2]; [5],no significant differences
same,Alanine aminotransferase,[2]; [6],66.21 ± 5.35 U/L
same,Alkaline phosphatase,[2]; [6],75.00 ± 7.34 U/L
same,Aspartate aminotransferase,[2]; [6],147.20 ± 7.03 U/L
same,Blood urea nitrogen,[2]; [6],10.14 ± 0.40 mmol/L
same,Creatinine,[2]; [6],17.22 ± 2.61 µmol/L
same,Granulocyte %,[2]; [6],25.22 ± 0.74%
same,Granulocytes,[2]; [6],0.36 ± 0.03 ×10^9/L
same,Lymphocyte %,[2]; [6],57.39 ± 1.59%
same,Lymphocytes,[2]; [6],0.80 ± 0.04 ×10^9/L
same,Monocyte %,[2]; [6],17.39 ± 1.56%
same,Monocytes,[2]; [6],0.25 ± 0.04 ×10^9/L
same,Red blood cells,[2]; [6],0.65 ± 0.03 ×10^12/L
same,Total bilirubin,[2]; [6],5.24 ± 0.49 µmol/L
same,White blood cells,[2]; [6],1.35 ± 0.10 ×10^9/L
same,γ-glutamyl transferase,[2]; [6],6.20 ± 1.24 U/L
same,toxic effects in C57BL/6 mice,"[2]; mouse, in vivo",no significant toxic effects
same,thrombin activity,thrombin,effectively inhibits
same,platelet spreading on fibrinogen,human washed platelets [3],inhibited
same,K a,[4],"7,227 m^−1s^−1"
same,K d,[4],0.03 s⁻¹
same,pKd,[4],5.38
same,NOXs activity,NOXs,significantly decreased
same,tail bleeding time,Tail bleeding in mice,no significant prolonging effect
